Counter-ions that a name gives are not always drawn.
System: tryptase purified from human lung or skin tissue preparations or human mast cell line (HMC-1)
Test: In vitro Tryptase Inhibition Assay
Assay type: biochemical
Conditions: substrate tosyl-Gly-Pro-Lys-p-nitroanilide; Tris-HCl pH 8.2; zinc chloride 150 μM; 1 hour preincubation at room temperature; read-out: Ki (apparent inhibition constant, tryptase inhibitory activity)
Experimental: Tryptase solution ([…]) was prepared by dissolving tryptase purified from human lung or skin tissue preparations or human mast cell line (HMC-1) or obtained from commercial sources, e.g., ICN Biomeidals, Irvine, Calif., Athens Research & Technology, Athens, Ga., etc., in a solvent mixture comprising: 10 mM 2-N-morpholinoethane sulfonic acid, 2 mM CaCl2, 20% glycerol and 50 µg/mL heparin. Substrate solution containing 2 mM synthetic tripeptide (tosyl-Gly-Pro-Lys-p-nitroanilide) was obtained from Sigma. Test Compound solutions were prepared by diluting a stock solution (1 mg of test Compound in 200 μL of dimethylsulfoxide (DMSO)) by ten-fold into assay buffer (comprising: Tris-HCl (pH 8.2), 50 mM; NaCl, 100 MM; 0.05% polyoxyethylenesorbitan monolaurate (Tween-20®); and zinc chloride, 150 μM) and then making seven additional three-fold dilutions into 10% DMSO in assay buffer.
Aliquots (50 μL) from each of the eight dilutions of test compound solution were added to separate wells in a 96-well U-bottom microtiter plate. Typtase solution (25 μL) was added to each well and the solutions were mixed 1 hour at room temperature. Substrate solution (25 μL) was added to initiate the enzymatic reaction and the microtiter plates were immediately transferred to a UVIMAX Kinetic Microplate Reader (Molecular Devices). The hydrolysis of the chromogenic substrate was followed spectrophotometrically at 405 nanometers for five minutes. Initial velocity measurements were calculated from the progress curves by kinetic analysis program (BatchKi; Petr Kuzmic, University of Wisconsin, Madison, Wis.). Apparent inhibition constants (K) were calculated from the enzyme progress curves using standard mathematical models.

CCOC(=O)c1ccccc1OCCNC(=O)N1CCc2[nH]c(C(C)c3nc4c([nH]3)CCN(C(C)=N)C4)nc2C1 (centres unmarked) [Compound 203, ethyl 2-[2-(2-{1-[5-(1-iminoethyl)-4,5,6,7-tetrahydro-1H-imidazo[4,5-c]pyridin-2-yl]ethyl}-1,4,6,7-tetrahydroimidazo[4,5-c]pyridin-5-ylcarbonylamino)ethoxy]benzoate]
Ki: 8 nM

CC(c1nc2cc(F)c(F)cc2[nH]1)c1nc2ccc(C(=O)NCCOc3ccccc3C(=O)O)cc2n1C (centres unmarked) [Compound 81, 2-(2-{2-[1-(5,6-difluoro-1H-benzoimidazol-2-yl)ethyl]-3-methyl-3H-benzoimidazol-5-ylcarbonylamino}ethoxy)benzoic acid]
Ki: 10 nM

CCOC(=O)c1ccccc1OCCNC(=O)c1ccc2nc(C(C)c3nc4c([nH]3)CCN(C(C)=N)C4)n(C)c2c1 (centres unmarked) [Compound 182, ethyl 2-[2-(2-{1-[5-(1-iminoethyl)-4,5,6,7-tetrahydro-1H-imidazo[4,5-c]pyridin-2-yl]ethyl}-3-methyl-3H-benzoimidazol-5-ylcarbonylamino)ethoxy]benzoate]
Ki: 4 nM

CC(c1nc2c(F)cc(F)c(F)c2[nH]1)c1nc2ccc(C(=O)NCCOc3ccccc3C(=O)O)cc2n1C (centres unmarked) [Compound 80, 2-(2-{2-[1-(4,6,7-Trifluoro-1H-benzoimidazol-2-yl)ethyl]-3-methyl-3H-benzoimidazol-5-ylcarbonylamino}ethoxy)benzoic acid]
Ki: 10 nM

CC(=N)N1CCc2[nH]c(C(=O)c3nc4ccc(C(=O)NCCc5cccc6ccccc56)cc4n3C)nc2C1 [Compound 116, 2-[5-(1-iminoethyl)-4,5,6,7-tetrahydro-1H-imidazo[4,5-c]pyridin-2-ylcarbonyl]-3-methyl-N-(2-naphth-1-ylethyl)-3H-benzoimidazole-5-carboxamide]
Ki: 6 nM

CC(=N)N1CCc2[nH]c(C(C)c3nc4ccc(C(=O)NCCOc5ccccc5-c5nnn[nH]5)cc4n3C)nc2C1 (centres unmarked) [Compound 225, 2-{1-[5-(1-iminoethyl)-4,5,6,7-tetrahydro-1H-imidazo[4,5-c]pyridin-2-yl]ethyl}-3-methyl-N-[2-(2-tetrazolylphenoxy)ethyl]-3H-benzoimidazole-5-carboxamide]
Ki: 8 nM

CC(=N)N1CCc2[nH]c(C(C)c3nc4ccc(C(=O)NCCOc5ccccc5C(=O)O)cc4n3C)nc2C1 (centres unmarked) [Compound 74, 2-[2-(2-{1-[5-(1-iminoethyl)-4,5,6,7-tetrahydro-1H-imidazo[4,5-c]pyridin-2-yl]ethyl}-3-methyl-3H-benzoimidazol-5-ylcarbonylamino)ethoxy]benzoic acid]
Ki: 6 nM

COCCn1c(C(C)c2nc3c([nH]2)CCN(C(C)=N)C3)nc2ccc(C(=O)NCCOc3ccccc3C(=O)O)cc21 (centres unmarked) [Compound 194, 2-[2-(2-{1-[5-(1-iminoethyl)-4,5,6,7-tetrahydro-1H-imidazo [4,5-c]pyridin-2-yl]ethyl)-3-(2-methoxyethyl)-3H-benzoimidazol-5-ylcarbonylamino)ethoxy]benzoic acid]
Ki: 9 nM

CCOC(=O)c1ccccc1OCCNC(=O)c1ccc2nc(C(C)c3nc4cc(OC(=O)OC)ccc4n3C(=O)C(C)C)n(C)c2c1 (centres unmarked) [Compound 84, Ethyl 2-(2-{2-[1-(1-isobutyryl-5-methoxycarbonyloxy-1H-benzoimidazol-2-yl)ethyl]-3-methyl-3H-benzoimidazol-5-ylcarbonylamino}ethoxy)benzoate]
Ki: 2600 nM

CC(c1nc2cc(NC(=N)N)ccc2[nH]1)c1nc2ccc(C(=O)NCCOc3ccc(Cl)cc3C(N)=O)cc2n1C (centres unmarked) [Compound 250, 2-[1-(5-guanidino-1H-benzoimidazol-2-yl)ethyl]-N-[2-(2-carbamoyl-4-chlorophenoxy)ethyl]-3-methyl-3H-benzoimidazole-5-carboxamide]
Ki: 0.4 nM

CC(=N)N1CCc2[nH]c(Cc3nc4ccc(C(=O)NCCc5cccc6ccccc56)cc4n3C)nc2C1 [Compound 115, 2-[5-(1-iminoethyl)-4,5,6,7-tetrahydro-1H-imidazo[4,5-c]pyridin-2-ylmethyl]-3-methyl-N-(2-naphth-1-ylethyl)-3H-benzoimidazole-5-carboxamide]
Ki: 3 nM

N=C(N)Nc1ccc2[nH]c(C(=O)c3nc4ccc(C(=O)NCCc5cccc6ccccc56)cc4n3CC(O)CO)nc2c1 (centres unmarked) [Compound 134, 2-(5-guanidino-1H-benzoimidazol-2-ylcarbonyl)-3-(2,3-dihydroxy)propyl-N-(2-naphth-1-ylethyl)-3H-benzoimidazole-5-carboxamide]
Ki: 0.02 nM

Cn1c(Cc2nc3cc(CN)ccc3[nH]2)nc2ccc(C(=O)NCCc3cccc4ccccc34)cc21 [Compound 102, 2-(5-aminomethyl-1H-benzoimidazol-2-ylmethyl)-3-methyl-N-(2-naphth-1-ylethyl)-3H-benzoimidazole-5-carboxamide]
Ki: 0.07 nM

NCc1ccc2[nH]c(Cc3nc4cc(OCCCCc5ccccc5)ccc4[nH]3)nc2c1 [Compound 26, C-{2-[5-(4-phenylbutoxy)-1H-benzoimidazol-2-ylmethyl]-1H-benzoimidazol-5-yl}methylamine]
Ki: 33000 nM

NCc1ccc2[nH]c(Cc3nc4cc(NC(=O)OCCc5ccccc5)ccc4[nH]3)nc2c1 [Compound 27, 2-Phenylethyl 2-(5-aminomethyl-1H-benzoimidazol-2-ylmethyl)-1H-benzoimidazole-5-carbamate trifluoroacetate]
Ki: 600 nM

CC(C)COC(=O)c1ccccc1OCCNC(=O)c1ccc2nc(C(C)c3nc4cc(O)ccc4[nH]3)n(C)c2c1 (centres unmarked) [Compound 43, isobutyl 2-(2-{2-[1-(5-hydroxy-1H-benzoimidazol-2-yl)ethyl]-3-methyl-3H-benzoimidazol-5-ylcarbonylamino}ethoxy)benzoate]
Ki: 2 nM

Cn1c(Cc2nc3c([nH]2)CCN(C=N)C3)nc2ccc(C(=O)NCCc3cccc4ccccc34)cc21 [Compound 117, 2-(5-iminomethyl-4,5,6,7-tetrahydro-1H-imidazo[4,5-c]pyridin-2-ylmethyl)-3-methyl-N-(2-naphth-1-ylethyl)-3H-benzoimidazole-5-carboxamide]
Ki: 8 nM

CCCCOC(=O)c1ccccc1OCCNC(=O)c1ccc2nc(C(C)c3nc4cc(O)ccc4[nH]3)n(C)c2c1 (stereo not drawn) [Compound 37, butyl 2-(2-{2-[l-(5-hydroxy-1H-benzoimidazol-2-yl)ethyl]-3-methyl-3H-benzoimidazol-5-ylcarbonylamino}ethoxy)benzoate]
Ki: 2 nM

Cn1c(Cc2nc3c([nH]2)CCC(CN)C3)nc2ccc(C(=O)NCCc3cccc4ccccc34)cc21 (centres unmarked) [Compound 112, 2-(5-aminomethyl-4,5,6,7-tetrahydro-1H-benzoimidazol-2-ylmethyl)-3-methyl-N-(2-naphth-1-ylethyl)-3H-benzoimidazole-5-carboxamide]
Ki: 0.05 nM

COc1ccccc1OCCNC(=O)c1ccc2nc(C(C)c3nc4cc(O)ccc4[nH]3)n(C)c2c1 (centres unmarked) [Compound 30, 2-[1-(5-Hydroxy-1H-benzoimidazol-2-yl)ethyl]-N-[2-(2-methoxyphenoxy)ethyl]-3-methyl-3H-benzoimidazole-5-carboxamide]
Ki: 9 nM

CC(=N)N1CCc2[nH]c(Cc3nc4ccc(C(=O)NCCc5ccc(O)c6ccccc56)cc4n3C)nc2C1 [Compound 128, 2-[5-(1-iminoethyl)-4,5,6,7-tetrahydro-1H-imidazo[4,5-c]pyridin-2-ylmethyl]-3-methyl-N-[2-(4-hydroxynaphthal-1-yl)ethyl]-3H-benzoimidazole-5-carboxamide]
Ki: 2 nM

CC(c1nc2cc(NC(=N)N)ccc2[nH]1)c1nc2ccc(C(=O)NCCOc3ccc(Cl)cc3C(=O)O)cc2n1C (centres unmarked) [Compound 252, 5-chloro-2-(2-{2-[1-(5-guanidino-1H-benzoimidazol-2-yl)ethyl]-3-methyl-3H-benzoimidazol-5-ylcarbonylamino}ethoxy)benzoic acid]
Ki: 0.4 nM

CC(c1nc2cc(NC(=N)N)ccc2[nH]1)c1nc2ccc(C(=O)NCCOc3cc(Cl)ccc3C(=O)O)cc2n1C (centres unmarked) [Compound 251, 4-chloro-2-(2-{2-[1-(5-guanidino-1H-benzoimidazol-2-yl)ethyl]-3-methyl-3H-benzoimidazol-5-ylcarbonylamino}ethoxy)benzoic acid]
Ki: 0.8 nM

N=C(N)Nc1ccc2[nH]c(Cc3nc4ccc(C(=O)NCCc5cccc6ccccc56)cc4n3CC(O)CO)nc2c1 (centres unmarked) [Compound 132, 2-(5-guanidino-1H-benzoimidazol-2-ylmethyl)-3-(2,3-dihydroxy)propyl-N-(2-naphth-1-ylethyl)-3H-benzoimidazole-5-carboxamide]
Ki: 0.02 nM

N=C(N)Nc1ccc2[nH]c(Cc3nc4ccc(C(=O)NCCc5cccc6ccccc56)cc4n3CCO)nc2c1 [Compound 152, 2-(5-guanidino-1H-benzoimidazol-2-ylmethyl)-3-(2-hydroxy)ethyl-N-(2-naphth-1-ylethyl)-3H-benzoimidazole-5-carboxamide]
Ki: 0.5 nM

CCOC(=O)c1ccccc1CCCC(=O)N1CCc2[nH]c(C(C)c3nc4cc(NC(=N)N)ccc4[nH]3)nc2C1 (centres unmarked) [Compound 29, Ethyl 2-(4-{2-[1-(5-guanidino-1H-benzoimidazol-2-yl)ethyl]-1,4,6,7-tetrahydroimidazo[4,5-c]pyridin-5-yl}-4-oxobutyl)benzoate]
Ki: 0.8 nM

Source: US6562854B2, “Compositions comprising a substituted benzimidazole useful for treating immunomediated inflammatory disorders” (Axys Pharmaceuticals, Inc., priority 1994, dated 2003)
